In publication PMC12446468, “Anti-inflammatory and cytotoxic assessment of flavonoids isolated from Viola odorata flowers with computer-guided docking study” (Scientific Reports, 2025):
Values after ≈ are worked out from the molar mass of the structure shown.

Columns and labels:
[1] = tested on: human colorectal carcinoma cells (HTC-116); assay: MTT cytotoxicity assay, HTC-116; type: cell-based; details: Homo sapiens, HTC-116, 48 h, read-out: IC50
Method: (§1) The assessment of cytotoxicity for the methanolic extract and isolated flavonoids was performed under controlled and sterile conditions within a Class II A2 Laminar flow biosafety cabinet. The carcinoma cell lines used in this study was obtained from Nawah Scientific Inc. (Cairo, Egypt). The cells were cultured in Dulbecco’s Modified Eagle’s Medium, enriched with 10% heat-inactivated fetal bovine serum, 100 U/ml penicillin, and 100 μg/ml streptomycin sulfate, maintained at […] in humidified incubators with 5% CO2. Upon reaching approximately 80% confluence, the cells were subcultured using a trypsin–EDTA solution. Harvesting occurred during the logarithmic growth phase. The methanolic extract and isolated flavonoids were dissolved in DMSO and stored at − 20 °C. For each experimental trial, the stock solutions were mixed with the culture medium to obtain the required final concentrations.
(§2) The effectiveness of the extract was compared to that of the reference drug, Doxorubicin. The percentage of cell viability was calculated by taking the ratio of the absorbance of the plant extract to that of the control, multiplied by 100. Furthermore, the IC50 value of the plant extract was determined using Sigma Plot software version 11 (Spw.exe) (https://sigmaplot.software.informer.com/11.0/).

[2] = MTT cytotoxicity assay, HTC-116; type: cell-based, human; details: human, HTC-116 cells (human colorectal carcinoma), 48 h
Method: as §1, §2

[3] = MTT cytotoxicity assay, HepG2; type: cell-based, human; details: human, HepG2 cells (hepatocellular carcinoma), 48 h
Method: as §1, §2

[4] = tested on: hepatocellular carcinoma (HepG2); assay: MTT cytotoxicity assay, HepG2; type: cell-based, human; details: Homo sapiens, HepG2, 48 h, read-out: IC50
Method: as §1, §2

COX-2 = biological target: T1, COX-2 (Homo sapiens, UniProt P35354); assay: COX-2 inhibition assay (Cayman COX kit); type: biochemical, ovine/human
T1 construct: purchased Cayman 560131
T1 sequence (P35354 18-604): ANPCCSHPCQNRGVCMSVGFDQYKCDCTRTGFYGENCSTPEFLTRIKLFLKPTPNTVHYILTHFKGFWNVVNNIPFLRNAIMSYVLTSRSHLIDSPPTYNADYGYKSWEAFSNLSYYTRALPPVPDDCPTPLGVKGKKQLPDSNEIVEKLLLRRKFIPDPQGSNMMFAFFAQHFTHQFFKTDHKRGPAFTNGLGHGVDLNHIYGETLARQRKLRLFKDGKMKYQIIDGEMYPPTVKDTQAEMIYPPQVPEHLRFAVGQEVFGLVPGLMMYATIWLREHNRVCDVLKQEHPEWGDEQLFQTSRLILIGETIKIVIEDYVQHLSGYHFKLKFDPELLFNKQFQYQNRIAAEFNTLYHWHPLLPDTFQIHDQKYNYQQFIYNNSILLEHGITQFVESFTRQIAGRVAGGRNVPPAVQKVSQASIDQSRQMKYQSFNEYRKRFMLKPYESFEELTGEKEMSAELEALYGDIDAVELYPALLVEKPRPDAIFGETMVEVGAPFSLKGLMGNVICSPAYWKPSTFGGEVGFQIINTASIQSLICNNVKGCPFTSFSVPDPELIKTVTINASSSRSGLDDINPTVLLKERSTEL
Text: (§3) The requirements for High-Performance Liquid Chromatography (HPLC) and all compounds tested were of the utmost analytical purity. […] COX-1 and COX-2 (ovine/human), as well as the 5-LOX enzyme (human recombinant) were obtained from Sigma-Aldrich. Dulbecco’s Modified Eagle’s Medium (DMEM), along with penicillin/streptomycin and L-glutamine, were acquired from Gibco BRL, California, USA. Fetal bovine serum (FBS) and 3-(4, 5-dimethylthiazol-2-yl)-2, 5-[…] (MTT) were supplied by Sigma-Aldrich, St. Louis, Missouri, USA.
(§4) The methanolic extract of V. odorata flowers and isolated flavonoids were subjected to an in vitro anti-inflammatory assessment by inhibiting two isoenzymes, cyclooxygenase COX-1 and COX-2 (ovine/human), as well as the 5-LOX enzyme (human recombinant).

COX-1 = biological target: T2, COX-1 (Ovis aries, UniProt P05979); assay: COX-1 inhibition assay (Cayman COX kit); type: biochemical, ovine/human; details: mean ± SE, n = 3
T2 construct: purchased Cayman 560131
T2 sequence (P05979 25-600): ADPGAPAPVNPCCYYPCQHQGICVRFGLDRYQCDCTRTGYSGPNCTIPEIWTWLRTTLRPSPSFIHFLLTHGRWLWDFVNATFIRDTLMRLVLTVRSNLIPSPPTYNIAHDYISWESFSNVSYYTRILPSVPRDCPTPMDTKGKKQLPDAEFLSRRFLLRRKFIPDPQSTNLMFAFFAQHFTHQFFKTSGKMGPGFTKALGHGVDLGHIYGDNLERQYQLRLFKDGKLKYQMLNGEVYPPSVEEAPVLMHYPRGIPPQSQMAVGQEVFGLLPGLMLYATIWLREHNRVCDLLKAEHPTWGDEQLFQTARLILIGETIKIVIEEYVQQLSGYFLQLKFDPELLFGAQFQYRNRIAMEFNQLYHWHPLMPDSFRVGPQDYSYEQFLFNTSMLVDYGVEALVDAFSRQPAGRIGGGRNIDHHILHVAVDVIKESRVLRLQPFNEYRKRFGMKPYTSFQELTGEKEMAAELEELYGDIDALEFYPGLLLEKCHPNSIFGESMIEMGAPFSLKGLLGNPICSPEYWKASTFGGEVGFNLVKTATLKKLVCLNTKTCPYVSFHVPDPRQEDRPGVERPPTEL
Text: as §3, §4

[5] = MTT cytotoxicity assay, Caco-2; type: cell-based, human; details: human, Caco-2 cells (human colonic epithelial cells), 48 h
Method: as §1, §2

[6] = tested on: human colonic epithelial cells (Caco-2); assay: MTT cytotoxicity assay, Caco-2; type: cell-based; details: Homo sapiens, Caco-2, 48 h, read-out: IC50
Method: as §1, §2

COc1c(O)cc2oc(-c3ccccc3)c(OC)c(=O)c2c1O [5,7-Dihydroxy-3,6-dimethoxyflavone]
IC50 [1]: 31.9 µg/mL (≈ 101 µM)
cytotoxicity at 48 h, 6.25 µg/ml ([2]; HTC-116, 6.25 ug/ml): 29.8%
viability at 48 h, 6.25 µg/ml ([2]; HTC-116, 6.25 ug/ml, read-out: % Cell viability): 70.2%
cytotoxicity at 48 h, 12.5 µg/ml ([2]; HTC-116, 12.5 ug/ml): 39.2%
viability at 48 h, 12.5 µg/ml ([2]; HTC-116, 12.5 ug/ml, read-out: % Cell viability): 60.8%
cytotoxicity at 48 h, 25 µg/ml ([2]; HTC-116, 25 ug/ml): 49.9%
viability at 48 h, 25 µg/ml ([2]; HTC-116, 25 ug/ml, read-out: % Cell viability): 50.1%
cytotoxicity at 48 h, 50 µg/ml ([2]; HTC-116, 50 ug/ml): 64.9%
viability at 48 h, 50 µg/ml ([2]; HTC-116, 50 ug/ml, read-out: % Cell viability): 35.1%
cytotoxicity at 48 h, 100 µg/ml ([2]; HTC-116, 100 ug/ml): 85.9%
viability at 48 h, 100 µg/ml ([2]; HTC-116, 100 ug/ml, read-out: % Cell viability): 14.1%
cytotoxicity at 48 h, 6.25 µg/ml ([3]; HepG2, 6.25 ug/ml): 24.9%
viability at 48 h, 6.25 µg/ml ([3]; HepG2, 6.25 ug/ml, read-out: % Cell viability): 75.1%
cytotoxicity at 48 h, 12.5 µg/ml ([3]; HepG2, 12.5 ug/ml): 35.4%
viability at 48 h, 12.5 µg/ml ([3]; HepG2, 12.5 ug/ml, read-out: % Cell viability): 64.9%
cytotoxicity at 48 h, 25 µg/ml ([3]; HepG2, 25 ug/ml): 55.9%
viability at 48 h, 25 µg/ml ([3]; HepG2, 25 ug/ml, read-out: % Cell viability): 44.1%
cytotoxicity at 48 h, 50 µg/ml ([3]; HepG2, 50 ug/ml): 69.9%
viability at 48 h, 50 µg/ml ([3]; HepG2, 50 ug/ml, read-out: % Cell viability): 30.1%
cytotoxicity at 48 h, 100 µg/ml ([3]; HepG2, 100 ug/ml): 83.5%
viability at 48 h, 100 µg/ml ([3]; HepG2, 100 ug/ml, read-out: % Cell viability): 16.5%
IC50 [4]: 32 µg/mL (≈ 102 µM)
IC50 (COX-2; mean ± SE, n = 3): 4.72 µM
Selectivity Index (COX-1/COX-2) (COX-2; ratio of IC50 COX-1 to IC50 COX-2): 0.83
IC50 (COX-1): 3.93 µM
cytotoxicity at 48 h, 6.25 µg/ml ([5]; Caco-2, 6.25 ug/ml): 27.8%
viability at 48 h, 6.25 µg/ml ([5]; Caco-2, 6.25 ug/ml, read-out: % Cell viability): 72.2%
cytotoxicity at 48 h, 12.5 µg/ml ([5]; Caco-2, 12.5 ug/ml): 37.8%
viability at 48 h, 12.5 µg/ml ([5]; Caco-2, 12.5 ug/ml, read-out: % Cell viability): 62.2%
cytotoxicity at 48 h, 25 µg/ml ([5]; Caco-2, 25 ug/ml): 48.9%
viability at 48 h, 25 µg/ml ([5]; Caco-2, 25 ug/ml, read-out: % Cell viability): 51.1%
cytotoxicity at 48 h, 50 µg/ml ([5]; Caco-2, 50 ug/ml): 66.5%
viability at 48 h, 50 µg/ml ([5]; Caco-2, 50 ug/ml, read-out: % Cell viability): 33.5%
cytotoxicity at 48 h, 100 µg/ml ([5]; Caco-2, 100 ug/ml): 86.7%
viability at 48 h, 100 µg/ml ([5]; Caco-2, 100 ug/ml, read-out: % Cell viability): 13.3%
IC50 [6]: 32.8 µg/mL (≈ 104 µM)
